Test results taken from ChEMBL document CHEMBL5316350, “Novel Pyrido[2',1':2,3]imidazo[4,5-c]quinoline Derivative Selectively Poisons Leishmania donovani Bisubunit Topoisomerase 1 to Inhibit the Antimony-Resistant Leishmania Infection in Vivo” (J Med Chem, 2023).
Active and inactive are the calls of the source. The rule behind the calls is not given here.

Legend:
Leishmania donovani [1] = test: (§1) Antileishmanial activity against antimony resistant Leishmania donovani BHU575 promastigotes infected in BALB/c mouse assessed as reduction of amastigote burden by measuring parasite count in liver treated after 3 weeks of infection at 5 to 10 mg/kg, ip twice a week for 3 weeks by qPCR based kineto-plastid DNA; format: functional, organism-based; conditions: dose 5-10 mg/kg
[2] = Cytotoxicity against BALB/c mouse macrophage assessed as cell viability measured after 48 hrs infection by propidium iodide staining analysis relative to control; format: toxicity, cell-based; conditions: mouse macrophages
Leishmania donovani [3] = test: as §1, with “spleen” for “liver”; format: functional, organism-based; conditions: dose 5-10 mg/kg
Leishmania donovani [4] = test: Induction of cell cycle arrest in antimony resistant Leishmania donovani BHU575 promastigotes assessed as decrease in accumulation of cells in G0/G1 phase at 5 uM measured after 6 hrs by PI staining based flow cytometry (reference value: 80.7%); format: functional; set-up: scale not given: the % may be the effect or the level left
Leishmania donovani [5] = test: Induction of apoptosis in […] Leishmania donovani Ag83 promastigotes assessed as DNA break accumulation measured at 5 uM after 15 mins by TUNEL staining based assay; format: functional, organism-based
Leishmania donovani [6] = test: Antileishmanial activity in Leishmania donovani BHU575 promastigotes assessed as TUNEL positive cells at 5 uM measured after 12 hrs by confocal microscopic analysis relative to control; format: functional
Leishmania donovani [7] = test: as §1, with “burden” for “burden by measuring parasite count”, “Giemsa staining stamp-smear” for “qPCR”, “limiting dilution assay” for “kineto-plastid DNA”; format: functional, organism-based; conditions: dose 5-10 mg/kg
Leishmania donovani [8] = test: Induction of apoptosis in Leishmania donovani Ag83 promastigotes assessed as necrotic cells measured at 5 uM after 12 hrs by Annexin V-FITC/PI staining based flow cytometric analysis; format: functional, organism-based
Leishmania donovani [9] = test: Antileishmanial activity against Leishmania donovani Ag83 promastigotes infected in BALB/c mouse assessed as reduction of macrophage at 1 to 10 uM infection by propidium iodide staining analysis; format: functional, organism-based; conditions: dose 1-10 µM, time 72-96 hrs, TDE = time-dependent effect
Leishmania donovani [10] = test: Induction of cell cycle arrest in Leishmania donovani Ag83 promastigotes assessed as accumulation of cells in S/G2 phase at 5 uM by PI staining based flow cytometry; format: functional, organism-based; conditions: time 6-24 hrs
Leishmania donovani [11] = test: Antileishmanial activity against antimony resistant Leishmania donovani BHU575 amastigotes infected in BALB/c mouse macrophage assessed as cell viability measured after 48 hrs infection by propidium iodide staining analysis relative to control; format: functional, organism-based; conditions: BHU575, 48 h
Leishmania donovani [12] = test: Stabilization of Leishmania donovani recombinant topoisomerase I/25-mer duplex oligonucleotide DNA complex assessed as fold change in stabilization at 5 to 25 uM measured after 30 mins; conditions: dose 5-25 µM
Leishmania donovani [13] = test: Antileishmanial activity against Leishmania donovani Ag83 promastigotes infected in BALB/c mouse model of visceral leishmaniasis assessed as fold change in T-helper type 1 immunological evoke response in splenocytes by measuring increased IFN-gamma cytokine level treated after 3 weeks of infection at 5 mg/kg, ip twice a week for 3 weeks by RT-PCR analysis; format: functional
Leishmania donovani [14] = test: Induction of apoptosis in Leishmania donovani Ag83 promastigotes assessed as DNA break accumulation measured at 5 uM after 15 mins by TUNEL staining based assay; format: functional, organism-based
[15] = target: T1, DNA topoisomerase I (Leishmania donovani (strain BPK282A1)) (UniProt E9BRC0); test: Inhibition of Leishmania donovani topoisomerase I assessed as DNA intercalation using pBluscript (SK+) DNA as substrate at 20 to 200 uM incubated for 15 mins ethidium bromide staining based UV analysis; conditions: dose 20-200 µM
T1 sequence (whole entry): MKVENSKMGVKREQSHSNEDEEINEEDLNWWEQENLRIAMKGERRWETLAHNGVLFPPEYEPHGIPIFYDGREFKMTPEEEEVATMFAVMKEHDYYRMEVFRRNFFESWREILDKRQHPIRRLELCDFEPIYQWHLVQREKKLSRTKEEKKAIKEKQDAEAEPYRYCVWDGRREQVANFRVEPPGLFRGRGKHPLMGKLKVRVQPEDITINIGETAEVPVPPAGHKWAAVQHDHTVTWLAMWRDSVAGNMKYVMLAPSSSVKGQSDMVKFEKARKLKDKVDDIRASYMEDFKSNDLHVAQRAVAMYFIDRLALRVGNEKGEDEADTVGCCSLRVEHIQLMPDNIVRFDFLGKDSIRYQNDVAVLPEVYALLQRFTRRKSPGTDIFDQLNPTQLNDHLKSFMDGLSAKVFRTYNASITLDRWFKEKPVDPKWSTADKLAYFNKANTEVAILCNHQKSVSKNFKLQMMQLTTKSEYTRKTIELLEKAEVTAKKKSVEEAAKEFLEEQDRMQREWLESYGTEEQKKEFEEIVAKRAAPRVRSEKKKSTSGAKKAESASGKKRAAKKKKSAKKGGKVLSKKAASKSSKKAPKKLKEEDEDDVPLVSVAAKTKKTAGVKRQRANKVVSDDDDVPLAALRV

Leishmania donovani [16] = test: Reversal of Top1cc-induced DNA breakdown in Leishmania donovani Ag83 promastigotes by measuring TUNEL positive cells treated for 6 to 12 hrs followed by compound removal measured after 6 to 12 hrs by confocal microscopic analysis relative to camptothecin; format: functional, organism-based; conditions: time 6-12 hrs
Leishmania donovani [17] = test: Antileishmanial activity against Leishmania donovani Ag83 promastigotes assessed as cell viability by MTT assay; format: functional, organism-based
Leishmania donovani [18] = test: Antileishmanial activity against Leishmania donovani Ag83 promastigotes infected in BALB/c mouse assessed as reduction of amastigote burden in spleen treated after 3 weeks of infection at 5 to 10 mg/kg, ip twice a week for 3 weeks by Giemsa staining stamp-smear based limiting dilution assay; format: functional, organism-based; conditions: dose 5-10 mg/kg
Leishmania donovani [19] = test: as §1, with “blood” for “liver”; format: functional, organism-based; conditions: dose 5-10 mg/kg
Leishmania donovani [20] = test: Antileishmanial activity against antimony resistant Leishmania donovani BHU575 promastigotes infected in BALB/c mouse assessed as reduction of macrophage at 10 uM measured after 96 hrs infection by propidium iodide staining analysis relative to control; format: functional; set-up: scale not given: the % may be the effect or the level left
Leishmania donovani [21] = test: Induction of apoptosis in Leishmania donovani Ag83 promastigotes assessed as late apoptotic cells measured at 5 uM after 6 hrs by Annexin V-FITC/PI staining based flow cytometric analysis (reference value: 0.1%); format: functional
Leishmania donovani [22] = test: Stabilization of Leishmania donovani promastigotes Top1-DNA complex assessed as formation of SDS-KCl precipitable complex incubated for 110 mins by anti-BrdU staining based spectrophotometric analysis
Leishmania donovani [23] = test: Induction of apoptosis in Leishmania donovani Ag83 promastigotes assessed as early apoptotic cells measured at 5 uM after 6 hrs by Annexin V-FITC/PI staining based flow cytometric analysis (reference value: 0.00%); format: functional
Leishmania donovani [24] = test: Antileishmanial activity in Leishmania donovani Ag83 promastigotes assessed as fold change in persistent Top1cc-induced DNA breakdown by measuring TUNEL positive cells treated for 6 to 12 hrs followed by compound removal measured after 6 to 12 hrs by confocal microscopic analysis relative to camptothecin; format: functional; conditions: time 6-12 hrs
Leishmania donovani [25] = test: Antileishmanial activity against Leishmania donovani Ag83 promastigotes infected in BALB/c mouse assessed as reduction of amastigote burden by measuring parasite count in spleen treated after 3 weeks of infection at 5 to 10 mg/kg, ip twice a week for 3 weeks by qPCR based kineto-plastid DNA; format: functional, organism-based; conditions: dose 5-10 mg/kg
Leishmania donovani [26] = test: Induction of cell cycle arrest in antimony resistant Leishmania donovani BHU575 promastigotes assessed as decrease in accumulation of cells in S phase at 5 uM measured after 6 hrs by PI staining based flow cytometry (reference value: 9.8%); format: functional; set-up: scale not given: the % may be the effect or the level left

## COc1cc(-c2nc3ccccc3c3nc4ccccn4c23)cc(OC)c1OC
Leishmania donovani [1]
  Activity: Active
[2]
  EC50 at 48 h: 50.2 µM
Leishmania donovani [3]
  Activity: Active
Leishmania donovani [4]
  Activity: 70.8%
Leishmania donovani [5]
  Activity: inactive
Leishmania donovani [6]
  Activity: 60%
Leishmania donovani [7]
  Activity: Active
Leishmania donovani [8]
  Activity: Active
Leishmania donovani [9]
  Activity: Tde
Leishmania donovani [10]
  Activity: Dose-Dependent Effect
Leishmania donovani [11]
  EC50: 7.06 µM
Leishmania donovani [12]
  fold change (FC): 2
Leishmania donovani [13]
  fold change (FC): 4
Leishmania donovani [14]
  Activity: Active
[15]
  inhibition: inactive
Leishmania donovani [16]
  Activity: inactive
Leishmania donovani [17]
  EC50: 2.31 µM
Leishmania donovani [18]
  Activity: Active
Leishmania donovani [19]
  Activity: Active
Leishmania donovani [20]
  Activity: 90%
Leishmania donovani [21]
  Activity: 52.5%
Leishmania donovani [22]
  Activity: Active
Leishmania donovani [23]
  Activity: 18.7%
Leishmania donovani [24]
  fold change (FC): 3
Leishmania donovani [25]
  Activity: Active
Leishmania donovani [26]
  Activity: 24.5%
